From ChEMBL document CHEMBL1201862, “PubChem BioAssay data set” (2004)
Calls of active or inactive are those of the source.

Assays:
[1] = molecular target: T1, Sentrin-specific protease 8 (Homo sapiens, UniProt Q96LD8); format: functional;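 note: luminescence read-out of SENP8 inhibition, dose-response confirmation following an ultra-high-throughput screen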
T1 sequence (Q96LD8 whole entry): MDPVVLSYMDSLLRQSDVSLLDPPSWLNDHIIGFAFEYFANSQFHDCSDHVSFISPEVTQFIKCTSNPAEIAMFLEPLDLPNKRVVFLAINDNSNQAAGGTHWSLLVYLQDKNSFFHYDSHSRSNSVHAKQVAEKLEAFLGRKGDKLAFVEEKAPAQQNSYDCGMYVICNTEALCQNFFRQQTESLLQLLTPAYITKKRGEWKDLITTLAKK

[2] = molecular target: T2, Sentrin-specific protease 6 (Homo sapiens, UniProt Q9GZR1); format: functional;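 note: Luminescence-based dose-response confirmatory assay of SENP6 inhibition, following up an ultra-high-throughput screen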
T2 sequence (Q9GZR1 whole entry): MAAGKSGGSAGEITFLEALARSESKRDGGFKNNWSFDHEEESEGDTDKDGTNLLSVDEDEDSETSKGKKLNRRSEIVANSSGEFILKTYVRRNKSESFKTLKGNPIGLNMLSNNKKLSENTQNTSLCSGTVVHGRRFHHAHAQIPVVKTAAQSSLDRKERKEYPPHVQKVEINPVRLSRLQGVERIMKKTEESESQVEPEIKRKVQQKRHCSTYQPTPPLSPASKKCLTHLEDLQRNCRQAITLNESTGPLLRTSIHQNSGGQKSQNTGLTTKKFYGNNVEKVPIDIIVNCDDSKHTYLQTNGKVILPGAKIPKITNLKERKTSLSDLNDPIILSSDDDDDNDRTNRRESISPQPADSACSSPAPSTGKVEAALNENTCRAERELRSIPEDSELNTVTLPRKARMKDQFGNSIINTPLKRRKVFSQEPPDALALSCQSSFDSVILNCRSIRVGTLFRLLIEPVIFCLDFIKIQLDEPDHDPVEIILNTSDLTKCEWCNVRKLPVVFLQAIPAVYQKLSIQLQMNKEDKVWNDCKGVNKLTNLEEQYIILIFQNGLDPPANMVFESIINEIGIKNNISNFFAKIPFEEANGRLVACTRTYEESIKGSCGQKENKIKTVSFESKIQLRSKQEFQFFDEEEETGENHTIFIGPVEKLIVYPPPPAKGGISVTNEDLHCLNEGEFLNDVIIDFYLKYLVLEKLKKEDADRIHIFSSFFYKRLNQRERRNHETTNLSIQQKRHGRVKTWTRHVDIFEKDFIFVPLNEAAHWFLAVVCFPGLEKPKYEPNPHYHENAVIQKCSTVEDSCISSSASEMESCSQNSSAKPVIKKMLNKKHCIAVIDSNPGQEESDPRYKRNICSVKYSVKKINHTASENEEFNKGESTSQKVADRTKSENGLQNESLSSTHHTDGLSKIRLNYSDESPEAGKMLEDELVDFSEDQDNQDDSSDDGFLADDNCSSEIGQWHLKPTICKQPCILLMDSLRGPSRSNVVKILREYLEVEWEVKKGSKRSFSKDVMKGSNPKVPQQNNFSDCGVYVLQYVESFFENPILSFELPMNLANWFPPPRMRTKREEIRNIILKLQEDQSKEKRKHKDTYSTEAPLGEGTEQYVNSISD

Caspase-3 = molecular target: T3, Caspase-3 (Homo sapiens, UniProt P42574); format: functional;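 note: Dose-response selectivity test against caspase-3 for candidate inhibitors of sentrin-specific proteases (SENPs)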
T3 sequence (P42574 whole entry): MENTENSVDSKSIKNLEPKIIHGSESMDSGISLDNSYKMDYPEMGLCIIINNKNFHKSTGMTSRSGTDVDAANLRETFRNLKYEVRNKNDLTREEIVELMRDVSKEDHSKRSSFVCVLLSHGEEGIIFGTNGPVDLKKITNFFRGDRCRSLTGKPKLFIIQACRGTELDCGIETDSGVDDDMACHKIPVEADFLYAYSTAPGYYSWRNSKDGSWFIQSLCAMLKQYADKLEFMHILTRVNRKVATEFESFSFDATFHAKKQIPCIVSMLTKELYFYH

Hexokinase = Hexokinase (Trypanosoma brucei, UniProt Q38C41); experiment: Confirmation assay for inhibitors of Trypanosoma brucei hexokinase 1-Analogue-first series. [Related pubchem assays (depositor defined):AID1430, AID1632, AID2516, AID2560, AID2579, AID2600, AID449725, AID492951]; format: functional
[3] = molecular target: T4, Sentrin-specific protease 7 (Homo sapiens, UniProt Q9BQF6); format: functional;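 note: Luminescence-based dose-response confirmation of ultra-high-throughput screening hits, measuring inhibition of SENP7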
T4 sequence (Q9BQF6 whole entry): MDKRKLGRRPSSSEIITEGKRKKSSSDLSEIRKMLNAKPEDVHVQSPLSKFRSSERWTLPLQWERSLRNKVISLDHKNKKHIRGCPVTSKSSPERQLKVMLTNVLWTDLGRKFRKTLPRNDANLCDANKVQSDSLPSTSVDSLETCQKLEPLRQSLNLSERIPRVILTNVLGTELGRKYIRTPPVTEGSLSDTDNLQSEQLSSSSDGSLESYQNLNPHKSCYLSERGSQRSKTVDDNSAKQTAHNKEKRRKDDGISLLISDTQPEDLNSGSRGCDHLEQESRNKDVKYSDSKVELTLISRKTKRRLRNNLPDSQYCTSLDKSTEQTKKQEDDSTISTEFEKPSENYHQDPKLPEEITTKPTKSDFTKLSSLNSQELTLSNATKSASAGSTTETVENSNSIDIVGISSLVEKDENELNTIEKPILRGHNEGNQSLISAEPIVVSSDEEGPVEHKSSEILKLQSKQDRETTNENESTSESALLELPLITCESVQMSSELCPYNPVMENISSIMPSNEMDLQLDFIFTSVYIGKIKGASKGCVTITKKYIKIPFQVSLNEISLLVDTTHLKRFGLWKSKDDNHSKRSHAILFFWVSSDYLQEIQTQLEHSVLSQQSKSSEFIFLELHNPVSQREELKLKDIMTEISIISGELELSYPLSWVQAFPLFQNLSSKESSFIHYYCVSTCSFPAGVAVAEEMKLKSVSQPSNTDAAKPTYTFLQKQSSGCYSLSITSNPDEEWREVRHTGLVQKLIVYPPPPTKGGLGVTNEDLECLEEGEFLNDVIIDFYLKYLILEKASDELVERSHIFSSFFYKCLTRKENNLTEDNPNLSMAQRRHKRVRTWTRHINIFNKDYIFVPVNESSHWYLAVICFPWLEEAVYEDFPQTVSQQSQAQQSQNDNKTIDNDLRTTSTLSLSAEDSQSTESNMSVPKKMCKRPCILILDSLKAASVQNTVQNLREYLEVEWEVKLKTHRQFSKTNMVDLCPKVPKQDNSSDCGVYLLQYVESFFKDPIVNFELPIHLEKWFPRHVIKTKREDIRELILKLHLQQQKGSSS

[4] = HepG2 cell cytotoxicity, dose response, cytotoxicity control for Shn3 inhibitor project, CellTiter-Glo, cherry-picked (AID 624134); format: functional, cell-based
HEK293 [5] = experiment: cells; format: functional, cell-based; details: Homo sapiens
[6] = Shn3 3'UTR reporter inhibitors, dose response, cell-based, Clone20 osteoblasts, firefly luciferase, cherry-picked (AID 624132); format: functional;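 note: firefly luciferase luminescence from reporter carrying the Shn3 3'UTR in osteoblasts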
[7] = molecular target: Nucleotide-binding oligomerization domain-containing protein 2 (Homo sapiens, UniProt Q9HC29); experiment: NOD2 signaling inhibitors, cell-based, luminescence, uHTS, HEK293 (AID 1566); format: functional
HEK293 [8] = experiment: cells; format: functional, cell-based; details: Homo sapiens; remark: listed apart in the source
HEK293 [9] = experiment: NOD1 signaling inhibitors, primary screen, cell-based, luminescence, uHTS (AID 1578); format: functional; details: Homo sapiens
HEK293 [10] = experiment: NOD2 signaling inhibitors in MDP-stimulated cells, cell-based, uHTS, luminescence (AID 2001); format: functional; details: Homo sapiens
[11] = molecular target: T5, COUP transcription factor 2 (Homo sapiens, UniProt P24468); experiment: Luminescence-based cell-based high throughput dose response assay to identify inhibitors of COUP-TFII (NR2F2).; format: functional;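 note: HEK293 cells transiently cotransfected with COUP-TFII expression vector and reporter; luciferase reporter luminescence driven by COUP-TFII from the pX2-168 reporter plasmid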
T5 sequence (P24468 whole entry): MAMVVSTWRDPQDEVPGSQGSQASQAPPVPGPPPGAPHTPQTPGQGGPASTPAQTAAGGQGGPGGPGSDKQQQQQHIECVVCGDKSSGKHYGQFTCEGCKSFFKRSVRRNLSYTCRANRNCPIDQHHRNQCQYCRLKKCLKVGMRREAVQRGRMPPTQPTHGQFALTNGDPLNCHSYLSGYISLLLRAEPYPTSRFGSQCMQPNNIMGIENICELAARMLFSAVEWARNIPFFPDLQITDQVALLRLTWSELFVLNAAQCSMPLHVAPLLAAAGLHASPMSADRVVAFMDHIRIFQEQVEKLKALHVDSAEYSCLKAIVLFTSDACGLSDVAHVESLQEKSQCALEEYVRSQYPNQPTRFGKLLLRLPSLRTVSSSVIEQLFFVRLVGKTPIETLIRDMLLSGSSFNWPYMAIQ

[12] = reduction of Shn3 3'UTR firefly luciferase signal, dose response, Schnurri-3 inhibitor project, cell-based, Clone20 osteoblasts, cherry-pick, set 2 (AID 720490); format: functional;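 note: actives lower the luminescence signal as inhibitors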
HEK293 [13] = experiment: cells; format: functional, cell-based; details: Homo sapiens; remark: listed apart in the source
INS1 = experiment: beta cell apoptosis inhibitors, cytokine rescue, dose response, luminescence, retest (AID 449756); format: functional, cell-based; details: Rattus norvegicus;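 note: cell death triggered by IL-1 beta plus TNF-alpha plus IFN-gamma mixture; protective hits raise ATP signal compared with cytokine alone wells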

Sequence of Hexokinase (Q38C41 whole entry): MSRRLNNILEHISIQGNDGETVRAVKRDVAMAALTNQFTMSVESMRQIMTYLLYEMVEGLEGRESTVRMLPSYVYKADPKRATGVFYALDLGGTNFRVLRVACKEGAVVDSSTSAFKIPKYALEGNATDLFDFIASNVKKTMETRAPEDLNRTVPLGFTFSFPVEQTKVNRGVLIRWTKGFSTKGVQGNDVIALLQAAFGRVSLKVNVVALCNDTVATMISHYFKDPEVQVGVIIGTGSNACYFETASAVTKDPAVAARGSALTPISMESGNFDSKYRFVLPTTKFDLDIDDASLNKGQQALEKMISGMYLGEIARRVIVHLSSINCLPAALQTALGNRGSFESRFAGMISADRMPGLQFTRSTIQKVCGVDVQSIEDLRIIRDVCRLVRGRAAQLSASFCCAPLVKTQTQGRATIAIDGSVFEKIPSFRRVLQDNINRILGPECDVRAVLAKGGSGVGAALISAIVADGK
Sequence of Nucleotide-binding oligomerization domain-containing protein 2 (Q9HC29 whole entry, the tested form may be a part): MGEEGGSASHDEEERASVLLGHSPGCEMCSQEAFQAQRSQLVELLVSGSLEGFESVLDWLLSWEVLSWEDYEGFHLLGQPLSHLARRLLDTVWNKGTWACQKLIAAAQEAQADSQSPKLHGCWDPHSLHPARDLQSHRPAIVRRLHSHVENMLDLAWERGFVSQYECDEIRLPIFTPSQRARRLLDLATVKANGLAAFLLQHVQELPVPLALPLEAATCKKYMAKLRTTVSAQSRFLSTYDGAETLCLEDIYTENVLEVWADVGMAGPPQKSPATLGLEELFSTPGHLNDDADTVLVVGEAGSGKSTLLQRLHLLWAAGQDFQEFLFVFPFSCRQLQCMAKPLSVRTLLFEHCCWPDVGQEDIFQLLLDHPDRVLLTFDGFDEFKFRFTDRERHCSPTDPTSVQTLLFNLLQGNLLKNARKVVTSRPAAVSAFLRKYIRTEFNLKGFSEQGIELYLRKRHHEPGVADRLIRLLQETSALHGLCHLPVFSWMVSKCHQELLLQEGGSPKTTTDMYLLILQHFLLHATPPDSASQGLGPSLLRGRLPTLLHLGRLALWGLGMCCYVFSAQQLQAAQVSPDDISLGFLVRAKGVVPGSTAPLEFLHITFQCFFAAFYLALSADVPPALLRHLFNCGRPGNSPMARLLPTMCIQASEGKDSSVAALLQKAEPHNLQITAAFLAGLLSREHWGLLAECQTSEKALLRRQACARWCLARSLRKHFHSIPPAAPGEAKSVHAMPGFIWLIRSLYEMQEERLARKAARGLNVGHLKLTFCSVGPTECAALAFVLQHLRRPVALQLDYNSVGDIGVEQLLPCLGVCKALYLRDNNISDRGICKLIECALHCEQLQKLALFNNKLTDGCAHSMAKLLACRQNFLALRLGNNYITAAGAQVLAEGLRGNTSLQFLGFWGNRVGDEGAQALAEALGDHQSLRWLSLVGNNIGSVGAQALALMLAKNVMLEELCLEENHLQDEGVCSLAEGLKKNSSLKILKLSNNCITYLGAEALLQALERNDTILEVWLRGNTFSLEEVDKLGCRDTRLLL

COc1ccc(-c2cc3ccccc3[nH]2)cc1
inactive: IC50 (Hexokinase) > 25 µM
active: IC50 [1] 45.2 µM | IC50 [2] 34.5 µM | IC50 (Caspase-3) 14.1 µM | IC50 [3] 18.2 µM

Cc1cc(S(=O)(=O)NCc2ccncc2)c(C)cc1Br
active: AC50 [4] 41.1 µM | AC50 [6] 1.23 µM | EC50 [7] 5.82 µM | IC50 (HEK293 [8]) 9.24 µM | EC50 (HEK293 [9]) 4.2 µM | IC50 [11] 6.41 µM | AC50 [12] 1.02 µM | AC50 (INS1) 4.42 µM
inactive: IC50 (HEK293 [5]) > 20 µM | IC50 (HEK293 [10]) 17.9 µM | IC50 (HEK293 [13]) > 20 µM
